According to ChEMBL document CHEMBL4024702, “Covalent Modifiers: A Chemical Perspective on the Reactivity of α,β-Unsaturated Carbonyls with Thiols via Hetero-Michael Addition Reactions” (J Med Chem, 2017):

What was measured:
[1] = Cysteine reactivity of the compound assessed as second order rate constant by 1H NMR analysis
[2] = Lysine reactivity of the compound in aqueous buffer assessed as drug recovery after 6 days at pH 7.4
[3] = Glutathione reactivity of the compound in DMSO and phosphate buffer assessed as second order rate constant for adduct formation
Tetrahymena pyriformis = assay: Toxicity in Tetrahymena pyriformis assessed as growth inhibition after 48 hrs
[4] = molecular target: Sodium-dependent dopamine transporter (Rattus norvegicus, UniProt P23977); assay: Inhibition of [3H]dopamine uptake at DAT in rat brain striatal synaptosomes by liquid scintillation counting analysis; type: subcellular, Striatum
[5] = Thiol reactivity of the compound in PBS buffer assessed as adduct formation at 100 to 200 uM at pH 7.4 by UV-visible spectroscopic analysis
[6] = Cysteine reactivity of the compound assessed as adduct formation after 2 mins by mass spectrometric analysis
[7] = Inhibition of PI3K (unknown origin); design: species or system Homo sapiens
[8] = Thiol reactivity of the compound in PBS buffer assessed as pseudo-first order rate constant for adduct formation in presence of 4-nitrobenzenethiol at pH 7.4 by stop-flow spectrophotometric analysis
[9] = molecular target: Proto-oncogene tyrosine-protein kinase Src (Gallus gallus, UniProt P00523, S345C); assay: Inhibition of chicken c-Src S345C mutant (251 to 533 residues) expressed in Escherichia coli by fluorescence assay
[10] = test system: Proto-oncogene tyrosine-protein kinase Src (Gallus gallus), P00523 [S345C]; assay: Ratio of Kinact to Ki for chicken c-Src S345C mutant (251 to 533 residues) expressed in Escherichia coli
[11] = Cysteine reactivity of the compound in CD3OD/deuterio phosphate buffer assessed as equilibrium constant for adduct formation at pH 7.4 by […] analysis
[12] = Beta-mercaptoethanol reactivity of the compound in CD3OD/deuterio phosphate buffer assessed as equilibrium constant for adduct formation at pH 7.4 by […] analysis
[13] = Glutathione reactivity of the compound in CD3OD/deuterio phosphate buffer assessed as equilibrium constant for adduct formation at pH 7.4 by […] analysis
[14] = Butanethiol reactivity of the compound in CD3OD/deuterio phosphate buffer assessed as equilibrium constant for adduct formation at pH 7.4 by […] analysis
[15] = Methanethiol reactivity of the compound in CD3OD/deuterio phosphate buffer assessed as equilibrium constant for adduct formation at pH 7.4 by […] analysis
Papain (Carica papaya) = molecular target: T1, Papain (Carica papaya) (UniProt P00784); assay: Irreversible inhibition of Carica papaya papain assessed as ratio of Kinact to Ki
T1 sequence (whole entry): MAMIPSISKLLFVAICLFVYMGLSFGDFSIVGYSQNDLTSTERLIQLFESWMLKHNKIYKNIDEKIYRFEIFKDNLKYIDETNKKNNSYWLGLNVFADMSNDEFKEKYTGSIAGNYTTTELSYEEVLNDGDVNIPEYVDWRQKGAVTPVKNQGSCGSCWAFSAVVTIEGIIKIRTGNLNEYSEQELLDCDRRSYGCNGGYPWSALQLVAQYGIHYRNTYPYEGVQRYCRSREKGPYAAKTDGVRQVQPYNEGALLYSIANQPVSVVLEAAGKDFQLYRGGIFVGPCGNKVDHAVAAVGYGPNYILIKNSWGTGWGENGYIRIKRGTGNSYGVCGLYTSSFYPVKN

[16] = Cysteamine reactivity of the compound in TRIS-HCL assessed as second order rate constant at 40 uM and pH 7.4 by stopped-flow assay
[17] = Glutathione reactivity of the compound in DMSO/HEPES buffer assessed as second order rate constant for adduct formation at pH 7.4 by spectroscopic analysis
[18] = Glutathione reactivity of the compound assessed as adduct formation after 2 mins by mass spectrometric analysis
[19] = DTT reactivity of the compound in acetonitrile to tris-HCL buffer at pH 7.4 by NMR spectroscopic analysis
[20] = Glutathione reactivity of the compound in acetonitrile to tris-HCL buffer at pH 7.4 by NMR spectroscopic analysis
[21] = Thiol reactivity of the compound assessed as equilibrium constant for adduct formation
Exportin-1 = Exportin-1 (Homo sapiens, UniProt O14980); assay: Inhibition of CRM1-mediated nucleocytoplasmic transport in human HeLa cells after 90 mins by immunofluorescence assay; type: cell-based
Exportin-1, sequence (O14980 whole entry): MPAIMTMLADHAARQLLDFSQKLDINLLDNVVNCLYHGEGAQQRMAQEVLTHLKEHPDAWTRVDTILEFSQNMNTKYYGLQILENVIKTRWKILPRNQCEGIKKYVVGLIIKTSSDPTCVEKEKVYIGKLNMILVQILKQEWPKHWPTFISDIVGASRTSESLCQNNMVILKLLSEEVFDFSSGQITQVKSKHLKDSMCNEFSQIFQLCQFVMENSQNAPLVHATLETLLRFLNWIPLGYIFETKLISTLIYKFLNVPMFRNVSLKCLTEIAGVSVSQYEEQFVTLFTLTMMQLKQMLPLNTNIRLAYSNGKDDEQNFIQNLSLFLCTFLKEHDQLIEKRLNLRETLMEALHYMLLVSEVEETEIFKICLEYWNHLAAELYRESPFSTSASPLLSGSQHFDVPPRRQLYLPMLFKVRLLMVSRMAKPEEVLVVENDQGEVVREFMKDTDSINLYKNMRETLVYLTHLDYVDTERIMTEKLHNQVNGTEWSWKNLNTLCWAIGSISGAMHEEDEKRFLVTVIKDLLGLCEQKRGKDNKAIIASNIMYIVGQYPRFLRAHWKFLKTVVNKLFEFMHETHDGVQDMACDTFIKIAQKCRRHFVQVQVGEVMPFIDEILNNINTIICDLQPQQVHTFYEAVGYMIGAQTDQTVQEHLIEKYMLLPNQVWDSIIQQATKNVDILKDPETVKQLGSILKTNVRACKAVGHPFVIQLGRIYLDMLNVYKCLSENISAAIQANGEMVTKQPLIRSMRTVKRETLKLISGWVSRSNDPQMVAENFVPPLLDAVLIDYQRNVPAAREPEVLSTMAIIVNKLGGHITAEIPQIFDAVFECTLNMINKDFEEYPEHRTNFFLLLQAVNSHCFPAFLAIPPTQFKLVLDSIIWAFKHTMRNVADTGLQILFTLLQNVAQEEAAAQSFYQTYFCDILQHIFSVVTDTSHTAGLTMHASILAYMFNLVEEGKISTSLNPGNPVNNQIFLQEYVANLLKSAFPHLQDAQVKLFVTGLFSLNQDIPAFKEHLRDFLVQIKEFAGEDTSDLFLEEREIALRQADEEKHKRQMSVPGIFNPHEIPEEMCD

Sodium-dependent dopamine transporter, sequence (P23977 whole entry): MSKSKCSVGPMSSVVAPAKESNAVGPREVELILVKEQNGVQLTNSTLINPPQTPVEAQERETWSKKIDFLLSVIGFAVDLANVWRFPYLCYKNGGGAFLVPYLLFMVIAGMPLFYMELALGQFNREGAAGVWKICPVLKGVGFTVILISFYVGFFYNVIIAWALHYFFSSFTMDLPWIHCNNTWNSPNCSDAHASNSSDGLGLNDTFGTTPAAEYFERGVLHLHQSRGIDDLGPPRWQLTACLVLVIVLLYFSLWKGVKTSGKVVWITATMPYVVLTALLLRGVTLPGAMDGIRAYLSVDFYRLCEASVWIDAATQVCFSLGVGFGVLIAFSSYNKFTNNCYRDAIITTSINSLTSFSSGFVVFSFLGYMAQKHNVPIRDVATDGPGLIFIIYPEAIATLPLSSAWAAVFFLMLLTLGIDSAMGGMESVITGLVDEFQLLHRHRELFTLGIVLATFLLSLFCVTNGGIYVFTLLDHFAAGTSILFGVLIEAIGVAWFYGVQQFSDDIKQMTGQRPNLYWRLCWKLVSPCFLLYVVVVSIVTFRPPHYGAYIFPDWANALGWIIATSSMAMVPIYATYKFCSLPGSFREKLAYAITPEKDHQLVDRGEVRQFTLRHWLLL

C=C1C(=O)O[C@H]2[C@H]1[C@H](OC(=O)/C(C)=C\C)CC(=C)[C@@H]1[C@H](O)[C@H]3O[C@@]3(C)[C@@]12O showed a K [1] of 42 M⁻¹ s⁻¹ and a Drug recovery [2] of 75%.

With C#CC(=O)OCC [PROPYNOIC ACID ETHYL ESTER] the K [3] was 105 M⁻¹ s⁻¹ and the EC50 (Tetrahymena pyriformis) was 17 µM.

C=CC=O [ACROLEIN] gave an IC50 [4] of 52.5 µM.

Compound N#CC(C(N)=O)C(SCCO)c1ccsc1 (configuration not stated) has a Kd [5] of 11900 µM.

Work on CCCCC[C@@H](O)C/C=C1/C(=O)C[C@H](O)[C@@H]1C/C=C\CCCC(=O)O yielded a Drug metabolism [6] of 60%.

For C=C[C@@]12COC(=O)C(=C)[C@@H]1[C@H]1OC(=O)C(=C)[C@@H]1[C@@H](O)C2, the K [1] was 200 M⁻¹ s⁻¹ and the Drug recovery [2] was 75%.

For CO[C@H]1OC(=O)/C(=C\Sc2ccccc2)C2=C(O)C(=O)C3=C([C@H](OC(C)=O)C[C@]4(C)C(=O)CC[C@@H]34)[C@]21C, the IC50 [7] was 0.0005 µM.

CC(C)(C)c1cc(O)cc(Sc2ccc([N+](=O)[O-])cc2)c1O showed a K [8] of 2.3 ×10¹ /s.

Compound C=CS(=O)(=O)Nc1ccc2ncnc(Nc3cccc(Br)c3)c2c1 has an IC50 [9] of 0.002 µM and a Ratio [10] of 1.03 M⁻¹ s⁻¹.

With C=CC(C)=O the IC50 [4] was 331 µM.

In the case of CCCCC[C@H](O)/C=C/[C@H]1C=CC(=O)/C1=C/CCCCCC(=O)OC, the Ke [11] is reported as 0.35 to 1.6 M⁻¹, the Ke [12] is reported as 0.35 to 1.6 M⁻¹ and the Ke [13] is reported as 0.35 to 1.6 M⁻¹. The Ke [14] was 0.35 to 1.6 M⁻¹ and the Ke [15] was 0.35 to 1.6 M⁻¹.

For COC(=O)/C=C/CNC(=O)c1cc(-c2ccc(C)cc2)no1, the Ratio (Papain (Carica papaya)) was 1.2 M⁻¹ s⁻¹.

For Cc1cc(O)c(C)c(Sc2ccc([N+](=O)[O-])cc2)c1O, the K [8] was 7.3 ×10⁻¹ /s.

Work on CN(C)C/C=C/C(=O)Nc1ccc2ncnc(Nc3cccc(Br)c3)c2c1 yielded an IC50 [9] of 0.24 µM and a Ratio [10] of 0.085 M⁻¹ s⁻¹.

COc1ccc(C(=O)C(C#N)C(SCCN)c2ccc(OC)c(OC)c2)c(OC)c1 (configuration not stated) showed a K [16] of 5700 M⁻¹ s⁻¹.

In the case of CCN(CC)c1ccc2cc(C(CC=O)SC[C@H](NC(=O)CC[C@H](N)C(=O)O)C(=O)NCC(=O)O)c(=O)oc2c1 (some centres not stated), the K [17] is reported as 0.41 M⁻¹ s⁻¹.

With CCN(CC)c1ccc2cc(C(SC[C@H](NC(=O)CC[C@H](N)C(=O)O)C(=O)NCC(=O)O)C(C(C)=O)C(C)=O)c(=O)oc2c1 (some centres not stated) the K [17] was 12 M⁻¹ s⁻¹.

CCCCC[C@@H](O)C/C=C1/C(=O)C=C[C@@H]1C/C=C\CCCC(=O)O showed a Drug metabolism [18] of 70% and a Drug metabolism [6] of 85%.

Compound O=C(/C=C/c1ccc(O)cc1)/C=C/c1ccc(O)cc1 has a DTT second-order rate constant [19] of 0.014 M⁻¹ s⁻¹ and an Activity [20] of 0.001 M⁻¹ s⁻¹.

For C=C(C)C(=O)O[C@H]1CC2=C[C@@H](C[C@@]3(C)O[C@H]3[C@H]3OC(=O)C(=C)[C@@H]31)OC2=O, the K [1] was 20 M⁻¹ s⁻¹ and the Drug recovery [2] was 75%.

Compound CCN(CC)c1ccc2cc(C(CC(C)=O)SC[C@H](NC(=O)CC[C@H](N)C(=O)O)C(=O)NCC(=O)O)c(=O)oc2c1 (some centres not stated) has a K [17] of 0.007 M⁻¹ s⁻¹.

Compound COC(=O)/C=C/CNC(=O)[C@@H](CNC(C)=O)Cc1ccccc1 has a Ratio (Papain (Carica papaya)) of 6.6 M⁻¹ s⁻¹.

In the case of N#CC(C(N)=O)C(SCCO)c1cccc2[nH]ccc12 (configuration not stated), the Kd [5] is reported as 6200 µM.

Compound CO[C@H]1OC(=O)/C(=C\SC(C)C)C2=C(O)C(=O)C3=C([C@H](OC(C)=O)C[C@]4(C)C(=O)CC[C@@H]34)[C@]21C has an IC50 [7] of 0.0001 µM.

Work on COC(=O)/C=C/CNC(=O)C1CCN(C(=O)CC(C)C)CC1 yielded a Ratio (Papain (Carica papaya)) of 0.5 M⁻¹ s⁻¹.

Work on COc1ccc(C(=O)C(Br)C(SCCN)c2ccc(OC)c(OC)c2)c(OC)c1 (configuration not stated) yielded a K [16] of 2.9 M⁻¹ s⁻¹.

In the case of O=C1C=CCC1, the K [3] is reported as 25.6 M⁻¹ s⁻¹ and the Ke [21] is reported as 3900 M⁻¹.

CCC(=C/[C@H](C)C/C=C/C(C)=C/[C@@H](C)C(=O)[C@@H](C)[C@H](O)[C@@H](C)C/C(C)=C/C(=O)O)/C=C/[C@@H]1OC(=O)C=C[C@@H]1C [LEPTOMYCIN B] showed an IC50 (Exportin-1) of 0.001 µM.

CCN(CC)c1ccc2cc(C(CC(=O)OC)SC[C@H](NC(=O)CC[C@H](N)C(=O)O)C(=O)NCC(=O)O)c(=O)oc2c1 (some centres not stated) showed a K [17] of 0 M⁻¹ s⁻¹.
